Among the data in PubChem BioAssay (NCI) are GI50 and TGI values, retold here.

Among the test systems are SR leukemia; DU-145 prostate; NCI-H226 lung; ACHN renal; U251 CNS; M14 melanoma; RXF 393 renal; BT-549 breast; UACC-62 melanoma; CAKI-1 renal.
Experiment in all cases: NCI tumour cell line growth inhibition, 48 h

SMILES strings stand for the structures. Where “and” joins values, the source holds several entries; their conditions need not be identical. Identical values can stand only once.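 Briefly, cells in 96-well plates were exposed to five compound concentrations for 48 h, and endpoints were estimated by linear interpolation. Abbreviation: GI50, concentration required for 50% inhibition of growth. The concentration for full growth arrest is given as TGI.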

On to `Cc1c(Br)c(Br)c2c3c1nc(N1CCNCC1)n3CCC2`, for which the GI50 with SR leukemia is 1600 nM; in the assay on DU-145 prostate it was 1.67 µM; in the assay with NCI-H226 lung, 1950 nM; with ACHN renal, 1.39 µM; in the assay on U251 CNS it was 1.86 µM; in the assay on M14 melanoma it was 1.8 µM. Moreover, the GI50 in the assay on RXF 393 renal is 1700 nM; in the assay on BT-549 breast it was 5.36 µM; with UACC-62 melanoma it was 1.62 µM; with CAKI-1 renal, 1450 nM. In addition, the TGI in the assay with SR leukemia is 5.24 µM; in the assay on DU-145 prostate, 3.05 µM; in the assay with NCI-H226 lung it was 5.31 µM; in the assay with ACHN renal, 2.71 µM; in the assay with U251 CNS, 4.11 µM; with M14 melanoma it was 3.55 µM. The TGI stood at 3.41 µM in the assay on RXF 393 renal, 20.2 µM with BT-549 breast, 3.08 µM with UACC-62 melanoma and 3.05 µM in the assay on CAKI-1 renal.
For the molecule `CC[C@@]1(O)C(=O)OCc2c1cc1n(c2=O)Cc2cc3cc(O)ccc3nc2-1`, the TGI with SR leukemia was 2.14 µM; with DU-145 prostate, 0.0786 µM; in the assay on NCI-H226 lung, 0.0907 µM and 0.113 µM; in the assay on ACHN renal it was 0.457 µM; in the assay with U251 CNS, 0.0327 µM; in the assay on M14 melanoma, 1.39 µM. For the same molecule, the TGI in the assay with RXF 393 renal is 0.165 µM and 0.222 µM; with BT-549 breast, 26.6 µM; in the assay with UACC-62 melanoma, 0.0795 µM and 0.0565 µM. The GI50 was 16.2 nM and 16.5 nM in the assay with NCI-H226 lung; 31.1 nM with RXF 393 renal; 42 nM in the assay with CAKI-1 renal.
For `COC(=O)COc1ccccc1/C=C1/N=C(c2ccccc2)N(c2c(C)n(C)n(-c3ccccc3)c2=O)C1=O`, the GI50 in the assay with SR leukemia was 31700 nM; in the assay on DU-145 prostate, over 100 µM; with NCI-H226 lung it was over 100000 nM; with ACHN renal, over 100 µM; with U251 CNS it was over 100 µM; with M14 melanoma, over 100 µM. Besides, the GI50 in the assay with RXF 393 renal is over 100000 nM; in the assay on BT-549 breast, 40.7 µM; in the assay with UACC-62 melanoma it was 83.9 µM; in the assay on CAKI-1 renal, over 100000 nM. The TGI with SR leukemia, in the assay with DU-145 prostate, with NCI-H226 lung, with ACHN renal, with U251 CNS and in the assay with M14 melanoma was over 100 µM in each case. In addition, the TGI with RXF 393 renal, in the assay with BT-549 breast, with UACC-62 melanoma and in the assay on CAKI-1 renal was over 100 µM each time.
As for `CCNCCS(=O)(=O)NC[C@@]1(c2ccccc2)SC(NC(=O)C(C)(C)C)=NN1C(=O)C(C)(C)C`, the GI50 with SR leukemia was under 10 nM; with DU-145 prostate, under 0.0159 µM; in the assay with NCI-H226 lung, over 100000 nM; in the assay on ACHN renal it was 4.9 µM; in the assay on U251 CNS, under 0.01 µM; in the assay with M14 melanoma, under 0.01 µM. Further, the GI50 is under 22.3 nM with RXF 393 renal, 0.357 µM in the assay with BT-549 breast, under 0.01 µM in the assay with UACC-62 melanoma and 694 nM in the assay on CAKI-1 renal. For the same molecule, the TGI is 22.3 µM in the assay with SR leukemia; over 100 µM in the assay with DU-145 prostate; over 100 µM in the assay with NCI-H226 lung; over 100 µM in the assay on ACHN renal; over 100 µM in the assay on U251 CNS; 0.0209 µM in the assay on M14 melanoma. The TGI was over 62.2 µM with RXF 393 renal, over 100 µM with BT-549 breast, over 100 µM in the assay with UACC-62 melanoma and over 100 µM in the assay with CAKI-1 renal.
In the case of `C=C(CC)C(=O)c1ccc(OCC(=O)O)c(Cl)c1Cl`, the TGI in the assay on SR leukemia is over 100 µM; with DU-145 prostate, over 73.2 µM; in the assay on NCI-H226 lung, 45.8 µM; in the assay on ACHN renal it was over 72.9 µM; in the assay with U251 CNS, 29.7 µM; in the assay with M14 melanoma, 45 µM. The TGI with RXF 393 renal worked out at 34.2 µM; in the assay on BT-549 breast it was 17.2 µM; with UACC-62 melanoma, 30.3 µM; in the assay with CAKI-1 renal, 28.1 µM.
Consider `O=C1NC(=NCCc2ccccc2F)S/C1=C\c1ccc2ncccc2c1`, for which the GI50 in the assay on SR leukemia is 880 nM; in the assay with DU-145 prostate it was 8.81 µM; with NCI-H226 lung, 7590 nM; in the assay on ACHN renal, 9.06 µM; in the assay on U251 CNS, 4.69 µM; with M14 melanoma it was 8.42 µM. For the same molecule, the GI50 was 7180 nM in the assay with RXF 393 renal, 6.48 µM with BT-549 breast, 7.1 µM with UACC-62 melanoma and 5290 nM in the assay with CAKI-1 renal. Besides, the TGI in the assay with SR leukemia was 8.83 µM; with DU-145 prostate, over 25 µM; in the assay with NCI-H226 lung, over 25 µM; with ACHN renal it was over 25 µM; with U251 CNS, over 25 µM; with M14 melanoma it was over 25 µM. Further, the TGI was over 25 µM in the assay with RXF 393 renal, over 25 µM in the assay with BT-549 breast, over 25 µM with UACC-62 melanoma and over 19.7 µM with CAKI-1 renal.
`CC1(C)CCC2(C(=O)O)C(O)CC3(C)C(=CCC4C5(C)CCC(OC6OCC(O)C(O)C6OC6OCC(O)C(O)C6OC6OCC(O)C(OC7OC(CO)C(O)C(O)C7O)C6O)C(C)(C)C5CCC43C)C2C1` (configuration not stated): the TGI with SR leukemia is 37.9 µM; in the assay on DU-145 prostate it was over 100 µM; with NCI-H226 lung, over 100 µM; in the assay on ACHN renal, over 100 µM; in the assay on U251 CNS it was over 100 µM; in the assay on M14 melanoma, over 100 µM. In addition, the TGI with RXF 393 renal was 59.1 µM; with BT-549 breast, 86.4 µM; in the assay with UACC-62 melanoma, over 100 µM; in the assay on CAKI-1 renal, over 100 µM.
With `C/C(=N\O)C1CC(CC(=O)O)C1(C)C` (configuration not stated), the TGI in the assay with SR leukemia, in the assay with DU-145 prostate, in the assay on NCI-H226 lung, in the assay on ACHN renal, in the assay with U251 CNS and in the assay on M14 melanoma was over 100 µM each time. The TGI in the assay with RXF 393 renal, in the assay with BT-549 breast, in the assay on UACC-62 melanoma and with CAKI-1 renal was over 100 µM each time.
For `O=C(O)c1cc(-c2ccc(-c3ccccc3)cc2)nc2cc3ccccc3cc12`, the TGI with SR leukemia, in the assay on DU-145 prostate, with NCI-H226 lung, in the assay on ACHN renal, in the assay on U251 CNS and in the assay on M14 melanoma was over 100 µM each time. Further, the TGI in the assay with RXF 393 renal, with BT-549 breast, with UACC-62 melanoma and in the assay with CAKI-1 renal was over 100 µM each time.
